These results are taken from US7304064B2, “1-[(indol-3-yl)carbonyl]piperazine derivatives” (N.V. Organon, priority 2002, dated 2007).

One experiment deals with T1, human CB1 receptor (Homo sapiens, UniProt P21554).
T1 construct: expressed in transfected cells; host or cells: CHO (Chinese Hamster Ovary) cells
As to the kind of experiment: In-vitro determination of efficacy and potency at the human CB1 receptor expressed in CHO cells (luciferase reporter). The class given is cell-based. (In a reporter assay the amount or activity of a reporter protein is the signal.)

The subject of a further experiment is Mice. As to the kind of experiment: Tail flick latency in mice. It counts as in vivo. The settings on record: Mus musculus, iv, administered intravenously, ED50 calculated at Tmax, read-out: ED50 (increase of tail flick latency). How it is done:
Mice were trained to sit still in a tail flick apparatus (Ugo Basile, Italy) whilst tail flick latency was measured. The tail was exposed to a focused beam of radiant heat at a point approximately 2.5 cm from the tip. Tail flick latency was defined as the interval between the appliance of the thermal stimulus and withdrawal of the tail. A 12 second cut-off was employed to prevent tissue damage. Four groups of eight mice were treated with vehicle or one of three doses of the test compound, administered intravenously (vehicle: saline 9 g/l; injection volume 10 ml/kg). Tail flick latency was measured before administration of the test compound and at regular intervals (typically 20, 40 and 60 minutes) after compound administration. The ED50 was calculated at Tmax.

[1] abbreviates: CHO cells expressing the human CB1 receptor and a luciferase reporter gene, 5 hours incubation, read-out: pEC50 (converted).

SMILES strings stand for the structures. Where two headings read alike, the source gives them in different places.

T1 sequence (P21554 whole entry): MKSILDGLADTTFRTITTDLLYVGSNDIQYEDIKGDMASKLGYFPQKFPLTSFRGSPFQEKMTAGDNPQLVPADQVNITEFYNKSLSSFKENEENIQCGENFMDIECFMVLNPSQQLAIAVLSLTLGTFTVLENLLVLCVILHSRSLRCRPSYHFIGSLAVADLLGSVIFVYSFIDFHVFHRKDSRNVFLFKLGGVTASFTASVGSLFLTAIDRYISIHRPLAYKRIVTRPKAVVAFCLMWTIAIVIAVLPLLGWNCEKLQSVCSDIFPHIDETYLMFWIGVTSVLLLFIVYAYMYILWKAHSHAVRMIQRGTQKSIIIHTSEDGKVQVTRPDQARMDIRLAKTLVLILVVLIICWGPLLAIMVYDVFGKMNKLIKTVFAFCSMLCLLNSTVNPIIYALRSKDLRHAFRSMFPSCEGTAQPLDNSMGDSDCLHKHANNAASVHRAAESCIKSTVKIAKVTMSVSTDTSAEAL

With `CCN1CCN(C(=O)c2cn(CC3CC=CCC3)c3c(OC)cccc23)CC1` (centres unmarked) [Example 5Q, 1-{[1-(Cyclohex-3-enylmethyl)-7-methoxy-1H-indol-3-yl]carbonyl}-4-ethylpiperazine], the EC50 on human CB1 receptor was 200 nM.
By ED50 is commonly meant the dose at which the effect has come halfway, by size or by number of responders. In the case of `COc1cccc2c(C(=O)N3CCN(C)[C@@H](C)C3)cn(CC3CCCCC3)c12` [Example 15O, (S)-1-{[1-(cyclohexylmethyl)-7-methoxy-1H-indol-3-yl]carbonyl}-3,4-dimethylpiperazine], the EC50 at human CB1 receptor was 25.1 nM. Also, the ED50 with Mice was under 5 µmol/kg.
`COc1cccc2c(C(=O)N3CCN(CCO)CC3)cn(CC3CCCCC3)c12` [Example 3C, 1-{[1-(Cyclohexylmethyl)-7-methoxy-1H-indol-3-yl]carbonyl}-4-(2-hydroxyethyl)piperazine]: on human CB1 receptor (setting [1]), the EC50 is 251 nM.
As for `CCN1CCN(C(=O)c2cn(C(C)C3CCCCC3)c3ccccc23)CC1` (single isomer, unassigned; (+)) [(+)-5I, (+)-1-{[1-(1-Cyclohexylethyl)-1H-indol-3-yl]carbonyl)-4-ethylpiperazine], the EC50 on human CB1 receptor is 79.4 nM.
Regarding `CCN1C(C)CN(C(=O)c2cn(CC3CCCCC3)c3c(OC)cccc23)CC1C` (centres unmarked) [Example 14, 1-{[1-(Cyclohexylmethyl)-7-methoxy-1H-indol-3-yl]carbonyl}-3,5-dimethyl-4-ethylpiperazine], the EC50 at human CB1 receptor was 10 nM. Moreover, the 50% effective dose (ED50) in the experiment on Mice was under 5 µmol/kg.
For `COc1cccc2c(C(=O)N3CCN4CCCC[C@H]4C3)cn(CC3CCCCC3)c12` [Example 17A, (S)-2-{[1-(Cyclohexylmethyl)-7-methoxy-1H-indol-3-yl]carbonyl}-octahydro-2H-Pyrido[1,2-a]pyrazine], the EC50 on human CB1 receptor (setting [1]) was 12.6 nM. Also, the ED50 with Mice is under 5 µmol/kg.
For the compound `COc1cccc2c(C(=O)N3CC(C)N(C)C(C)C3)cn(CC3CCCCC3)c12` (centres unmarked) [Example 15F, 1-{[1-(cyclohexylmethyl)-7-methoxy-1H-indol-3-yl]carbonyl}-3,4,5-trimethylpiperazine], the EC50 at human CB1 receptor is 31.6 nM. In the experiment with Mice, the ED50 is under 5 µmol/kg.
Compound `CN1CCN(C(=O)c2cn(CC3CCCCC3)c3cc(F)ccc23)CC1` [Example 5T, 1-{[1-(Cyclohexylmethyl)-6-fluoro-1H-indol-3-yl]carbonyl}-4-methylpiperazine] showed an EC50 on human CB1 receptor of 251 nM.
For the compound `CCN1CCN(C(=O)c2cn(CCN3CCOCC3)c3c(OC)cccc23)CC1` [Ref. 2, 1-Ethyl-4-{[7-methoxy-1-[2-(4-morpholin-yl)ethyl]-1H-indol-3-y]carbonyl}-piperazine, reference compound], the EC50 on human CB1 receptor was over 10000 nM.
With `COc1cccc2c(C(=O)N3CCN4CCCC[C@H]4C3)cn(CC3CCCC3)c12` [Example 17D, (S)-2-{[1-(Cyclopentylmethyl)-7-methoxy-1H-indol-3-yl]carbonyl}-octahydro-2H-pyrido[1,2-a]pyrazine], the EC50 on human CB1 receptor (setting [1]) is 31.6 nM. Further, the ED50 in the experiment with Mice is under 5 µmol/kg.
The like results for `COc1cccc2c(C(=O)N3CCN4CCC[C@H]4C3)cn(CC3CCCCC3)c12` [Example 17C, (S)-2-{[1-(Cyclohexylmethyl)-7-methoxy-1H-indol-3-yl]carbonyl}-octahydro-2H-Pyrrolo[1,2-a]pyrazine] were, in that order, 25.1 nM and under 5 µmol/kg.
In turn, `CCN1CCN(C(=O)c2cn(Cc3ccccc3)c3c(OC)cccc23)CC1` [Ref. 3., 1-{[1-Benzyl-7-methoxy-1H-indol-3-yl]carbonyl}-4-ethylpiperazine, reference compound] yielded an EC50 on human CB1 receptor of over 10000 nM.
On to `CCN1CCN(C(=O)c2cn(CC3CCCCC3)c3c(F)cccc23)CC1` [Example 5B, 1-{[1-(Cyclohexylmethyl)-7-fluoro-1H-indol-3-yl]carbonyl}-4-ethylpiperazine], for which the EC50 on human CB1 receptor is 100 nM.
Turning to `CCN1CCN(C(=O)c2cn(CC3CCCC3)c3c(OC)cccc23)CC1` [Example 2, 1-{[1-(Cyclopentylmethyl)-7-methoxy-1H-indol-3-yl]carbonyl}-4-ethylpiperazine], the EC50 on human CB1 receptor is 316 nM.
